This assay has as its system uterine weight, immature rats. The assay can be described thus: In vivo uterotropic activity. Set-up: species or system rat. The conditions noted are these: 0.2 and 2 mg/kg, three days, S.C. As to the method: Immature rats were treated with doses of 0.2 and 2 mg/kg 5,7,9-estratriene-3β,17β-diol for three days (S.C.) as well as additional groups (n=6) of rats treated with 0.5 μg ethinyl estradiol and vehicle as positive and negative controls, respectively.

As for `C[C@]12CCc3c(ccc4c3CC[C@H](O)C4)[C@@H]1CC[C@@H]2O` [5,7,9-estratriene-3β,17β-diol], the uterine weight entry was “uterine weight gains at both concentrations”.

The record behind these values is patent US6693207B2, “B-ring estratriene diols” (Wyeth, priority 1997, dated 2004).
